Data reported in paper PMC6983054, “Toxicity and Antitumor Activity of a Thiophene–Acridine Hybrid” (Molecules, 2019).
Where two headings read alike, the source gives them in different places.

Tests used:
[1] = system: HCT-116 cells (human colon carcinoma cell line); assay: MTT cytotoxicity assay, HCT-116; assay type: cell-based
From the text: Colorectal carcinoma cells (HCT-116), chronic myelogenous leukemia (K562), and acute promyelocytic leukemia (HL-60) were generously provided by Dr. Manoel de Moraes (Federal University of Ceará, Fortaleza, Brazil) and cultured in Roswell Park Memorial Institute 1640 (RPMI 1640; Sigma Aldrich, St. Louis, MO, USA) medium supplemented with 10% fetal bovine serum (GIBCO, Grand Island, NY, USA) and 1% penicillin–streptomycin (Sigma Aldrich, St. Louis, MO, USA). Human keratinocyte cells (HaCaT; provided by Dr. Jaciana Aguiar from Federal University of Pernambuco, Recife, Pernambuco, Brazil), cervical cancer cells (HeLa; purchased from the cell bank of Rio de Janeiro, Rio de Janeiro, Brazil), and breast cancer cells (MCF-7; provided by Dr. João Ernesto de Carvalho from University of Campinas, Campinas, São Paulo, Brazil) were grown and maintained in Dulbecco’s Modified Eagle’s Medium (DMEM; Sigma Aldrich, St. Louis, MO, USA) supplemented with 10% fetal bovine serum (GIBCO, Grand Island, NY, USA) and 1% penicillin–streptomycin (Sigma Aldrich, St. Louis, MO, USA). All cell types were maintained in 5% CO2 at 37 °C with humidity.
MTT (3-(4,5-dimethylthiazol-2-yl)-2,5-diphenyltetrazolium bromide) reduction assay was used to evaluate the cytotoxicity of ACS03 and its precursors (2-amino-5,6,7,8-tetrahydro-4H-cyclohepta[b]thiophene-3-carbonitrile and 6,9-dichloro-2-methoxyacridine) against tumor and non-tumor cell lines and PBMC. For the MTT assay, cell lines (3 × 10^5 cells/mL) and PBMC (1 × 10^6 cells/mL) were seeded on 96-well plates and cultured for 24 h. ACS03 (3.125–200 µM) was added to the cell cultures and incubated for 72 h. After incubation, 110 µL of the supernatant was removed and 10 μL of the MTT reagent (Sigma Aldrich, St. Louis, MO, USA) was added to each well, and the plates were then incubated at 37 °C. Following 3 h incubation, 100 μL of sodium dodecyl sulfate (SDS) was added to dissolve the formazan crystals produced and left overnight to incubate. The amount of formazan is proportional to the number of viable cells present. The optical density was measured using a microplate spectrophotometer reader (Microplate reader BioTek Instruments, Sinergy HT, Winooski, VT, USA) at λ = 570 nm and used to calculate the IC50 (half maximal inhibitory concentration).

nitrite (nitric oxide) = assay: Nitrite levels in ascitic fluid, Ehrlich ascites carcinoma model (Griess); assay type: in vivo, mice (Mus musculus); conditions: peritoneal fluid, control 36.09 ± 0.72 µM
Procedure: The nitrite concentration in the ascitic fluid was measured using Griess reagent. For this, the peritoneal fluid of control and treated animals (12.5 mg/kg ACS03 and 25 mg/kg 5-FU) was used. The optical density was measured using a microplate spectrophotometer reader (Microplate reader BioTek Instruments, Sinergy HT, Winooski, VT, USA) at λ = 560 nm. Concentrations of nitrite were calculated from a standard curve previously established with known molar concentrations of sodium nitrite. The tests were done in quadruplicate and the values expressed in µM [51].

erythrocytes = system: erythrocytes; design: method as in PMID 29415325; conditions: cited from earlier work
[2] = system: HL-60 (human promyelocytic leukemia cell line); assay: MTT cytotoxicity assay, HL-60; assay type: cell-based; conditions: HL-60, MTT, 72 h
From the text: (§1) Colorectal carcinoma cells (HCT-116), chronic myelogenous leukemia (K562), and acute promyelocytic leukemia (HL-60) were generously provided by Dr. Manoel de Moraes (Federal University of Ceará, Fortaleza, Brazil) and cultured in Roswell Park Memorial Institute 1640 (RPMI 1640; Sigma Aldrich, St. Louis, MO, USA) medium supplemented with 10% fetal bovine serum (GIBCO, Grand Island, NY, USA) and 1% penicillin–streptomycin (Sigma Aldrich, St. Louis, MO, USA). […]
(§2) MTT (3-(4,5-dimethylthiazol-2-yl)-2,5-diphenyltetrazolium bromide) reduction assay was used to evaluate the cytotoxicity of ACS03 and its precursors (2-amino-5,6,7,8-tetrahydro-4H-cyclohepta[b]thiophene-3-carbonitrile and 6,9-dichloro-2-methoxyacridine) against tumor and non-tumor cell lines and PBMC. […] The optical density was measured using a microplate spectrophotometer reader (Microplate reader BioTek Instruments, Sinergy HT, Winooski, VT, USA) at λ = 570 nm and used to calculate the IC50 (half maximal inhibitory concentration).

[3] = system: GST (Glutathione S-transferase); assay: GST activity in zebrafish larvae; assay type: in vivo, zebrafish (Danio rerio); conditions: 96 h, control 31.8 ± 0.05
Procedure: (§3) The FET test was repeated for ACS03 under the same conditions described above, but this time the embryos were independently exposed to three concentrations (10, 20, and 40 µM). At the end of the exposure period (96 h), the larvae were quickly frozen in a ratio of 1 larva per 100 µL of 0.1 M sodium phosphate buffer, pH 7.4.
(§4) Larval groups from each of the three tested concentrations and a negative control group (exposed to E3 medium only) were macerated using 1:9 (w/v) cold 0.9% NaCl solution. The homogenates were centrifuged at 10,000× g for 10 min at 4 °C, and the resulting supernatants were used for the measurement of soluble protein content and enzyme activity. The activities of acetylcholinesterase (AChE), glutathione S-transferase (GST), and lactate dehydrogenase (LDH) were measured according to Domingues et al. (2010). Tests were done in quadruplicate for each enzyme.

Leishmania = system: Leishmania; design: method as in PMID 29415325; conditions: cited from earlier work
[4] = system: K562 (chronic myeloid leukemic cell line); assay: MTT cytotoxicity assay, K562; assay type: cell-based; conditions: Homo sapiens, 72 h
From the text: as §1, §2

[5] = system: HeLa (human cervical cancer cell line); assay: MTT cytotoxicity assay, HeLa; assay type: cell-based; conditions: 72 h
From the text: as §1, §2

[6] = system: HaCat (Human immortalized keratinocytes cell line); assay: MTT cytotoxicity assay, HaCat non-tumor cells; assay type: cell-based; conditions: 72 h
From the text: as §1, §2

[7] = system: LDH (Lactate dehydrogenase); assay: LDH activity in zebrafish larvae; assay type: in vivo; conditions: 96 h, control 316.6 ± 1.28
Procedure: as §3, §4

[8] = Acute preclinical toxicity in mice (OECD 423); assay type: in vivo, mice (Mus musculus); conditions: female, Swiss albino, mouse, in vivo, ip, estimated, OECD 423, read-out: LD50 (lethal dose 50%)
Procedure: (§5) Female Swiss albino mice (Mus musculus) weighing between 28 and 32 g, with an approximate age of 60 days and obtained from the Dr. Thomas George Bioterium (Research Institute in Drugs and Medicines/Federal University of Paraíba, Paraíba, Brazil) were used. The animals were grouped in polyethylene cages containing six animals, with free access to food (Purina® feed pellets, St. Louis, MO, USA) and water. The animals were kept under controlled conditions (21 ± 1 °C, 12 h/12 h off light/dark cycle). All experiments were approved by the Committee on Ethical Use of Animals in Research (CEUA) of Federal University of Paraíba, Brazil, certified by number 093/2017.
(§6) The acute toxicity test in mice was performed according to the Guideline for Testing of Chemicals no. 423 of the Organization for Economic Co-operation and Development (OECD). Mice were divided into different groups (n = 3 females/group). The control group received vehicle alone (12% (v/v) Tween 80 in saline), and ACS03 was tested in single doses of 300 or 2000 mg/kg, intraperitoneally (i.p.). The dose responsible for the death of 50% of the experimental animals (LD50) was estimated.

Swiss albino mice = assay: Acute preclinical toxicity in mice (OECD 423); assay type: in vivo, mice (Mus musculus)
Procedure: as §5, §6

[9] = system: MCF-7 (breast cancer cell line); assay: MTT cytotoxicity assay, MCF-7; assay type: cell-based; conditions: Homo sapiens, MCF7; MCF-7, MTT, 72 h
From the text: as §1, §2

[10] = Fish embryo acute toxicity (FET) test; design: species or system zebrafish (Danio rerio); conditions: wild-type, in vivo, zebrafish embryos, 96 h exposure; for EC50 at 96 h: zebrafish
Procedure: The zebrafish (Danio rerio) embryos were provided by the zebrafish facility established at Department of Molecular Biology, Federal University of Paraíba (João Pessoa, Brazil). To obtain embryos, an egg trap was placed overnight in a tank containing male and female specimens (1:1 ratio) of a wild-type strain one day prior to testing. One hour after the beginning of the light cycle (14 h light/10 h dark), eggs were collected and rinsed with E3 medium (5 mM NaCl, 0.17 mM KCl, 0.33 mM CaCl2, and 0.33 mM MgSO4). Viable fertilized eggs were selected using a stereomicroscope (80× magnification), and embryotoxicity analysis was carried out. All experiments were approved by the Committee on Ethical Use of Animals in Research (CEUA) of Federal University of Paraíba, Brazil, certified by number 5900310718/2018.
The fish embryo acute toxicity (FET) test was conducted with ACS03 according to OECD’s guideline no. 236, with slight modifications. Zebrafish embryos of up to 3 hpf (hours post fertilization) of age were initially exposed to 250–15.62 µM. For each concentration tested, we prepared a 96-well plate containing 20 fertilized eggs (1 embryo per well) exposed to the test sample and 4 embryos exposed only to E3 medium (internal controls). The exposure was performed for 96 h, and the embryos were analyzed every 24 h for the apical endpoints: egg coagulation; lack of somite formation; lack of detachment of the tail-bud from the yolk sac; and lack of heartbeat. In the presence of any of these endpoints, the embryo/larva was considered dead. The number of deaths was used to calculate the LC50 (median lethal concentration). Sublethal effects were also recorded in order to obtain the EC50 (median effect concentration), them being spinal deformation, reduction in larval length, and pericardial edema. The exposures were under static conditions (without renovation of test sample or E3 medium). Observations were performed in a stereomicroscope (80× magnification) and photographed (Zeiss). After 96 h, surviving larvae were euthanized with eugenol and properly discarded.
The results are expressed as the mean ± SEM. Statistical analysis of data was performed using analysis of variance (ANOVA), followed by Tukey’s test (p < 0.05). For zebrafish embryo cytotoxicity, the median lethal concentration (LC50) values and the median effect concentration (EC50) values were calculated by probit regression analysis.

[11] = system: Ehrlich ascites carcinoma; assay: In vivo antitumor activity, Ehrlich ascites carcinoma model; design: species or system mice (Mus musculus); conditions: 12.5 mg/kg i.p., seven days
From the text: Ehrlich ascites carcinoma was generously provided by Pharmacology and Toxicology Division, CPQBA, UNICAMP (Paulínia, São Paulo, Brazil). The cells were maintained in the peritoneal cavities of Swiss mice in the Dr. Thomas George Bioterium (Research Institute in Drugs and Medicines/Federal University of Paraíba, João Pessoa, Brazil).
as §5
Mice were inoculated with 4 × 10^6 cells/mL of Ehrlich tumor cells (0.5 mL/animal), intraperitoneally (i.p.). After 24 h, mice were divided into […] (n = 6/group) and treated with vehicle alone (12% (v/v) Tween 80 in saline), 5-FU (standard drug, 25 mg/kg), or ACS03 (3.125, 6.25, 12.5, or 25 mg/kg) for seven consecutive days (i.p.). […]

[12] = system: AChE (Acetylcholinesterase); assay: AChE activity in zebrafish larvae; assay type: in vivo, zebrafish (Danio rerio); conditions: 96 h, control 66.35 ± 0.04
Procedure: as §3, §4

[13] = system: peripheral blood mononuclear cells (PBMC); assay: MTT cytotoxicity assay, PBMC; assay type: cell-based; conditions: Homo sapiens, 72 h
Procedure: Heparinized blood was collected from healthy donors, and the PBMC were isolated by a standard method of density-gradient centrifugation using Ficoll-Histopaque (Sigma Aldrich, St. Louis, MO, USA). PBMC were cultivated in RPMI-1640 medium supplemented with 10% fetal bovine serum, 1% penicillin–streptomycin, and 2% phytohaemagglutinin. Cells were kept at 37 °C with 5% CO2 for 24 h before the start of the experiment. This study was approved by the Ethics Committee of the Human Health Sciences Center Research (CCS), UFPB (CAAE: 22986519.0.0000.5188), Brazil.
as §2, with “PBMC. For the MTT assay, cell lines (3 × 10^5 cells/mL) and PBMC (1 × 10^6 cells/mL) were seeded on 96-well plates and cultured for 24 h. ACS03 (3.125–200 µM) was added to the cell cultures and incubated for 72 h.” for “PBMC.”

[14] = HCT-116, MTT, 72 h, read-out: IC50

N#Cc1c(N)sc2c1CCCCC2 [2-amino-thiophene, 2-amino-5,6,7,8-tetrahydro-4H-cyclohepta[b]thiophene-3-carbonitrile]
IC50 [1, 14]: > 1000 µM

O=c1[nH]cc(F)c(=O)[nH]1 [5-FU, 5-fluorouracil, reference compound]
nitrite concentration (nitrite (nitric oxide); 25 mg/kg): 16.3 ± 2.91 µM

COc1ccc2nc3cc(Cl)ccc3c(Cl)c2c1 [6,9-diclhoro-2-methoxi-acridine, 6,9-dichloro-2-methoxyacridine]
IC50 [1, 14]: 202.3 ± 1.19 µM

COc1ccc2nc3cc(Cl)ccc3c(Nc3sc4c(c3C#N)CCCCC4)c2c1 [ACS03, 2-((6-Chloro-2-methoxyacridin-9-yl)amino)-5,6,7,8-tetrahydro-4H-cyclohepta[b]-thiophene-3-carbonitrile]
cytotoxicity against erythrocytes (erythrocytes): no cytotoxicity
IC50 [2]: > 50 µM
GST activity ([3]; 10 µM): 57.96 ± 0.23
GST activity ([3]; 20 µM): 75.83 ± 0.13
GST activity ([3]; 40 µM): 86.14 ± 0.21
antileishmanial activity (Leishmania): showed antileishmanial activity
IC50 [4]: > 50 µM
IC50 [5]: > 50 µM
IC50 [6]: 62.2 ± 1.15 µM
LDH activity ([7]; 20 µM): 378.44 ± 0.58
LDH activity ([7]; 40 µM): 426.74 ± 0.79
LD50 [8]: > 5000 mg/kg
death in acute toxicity assay (Swiss albino mice; single dose 300 mg/kg i.p., test repeated): no death
death in acute toxicity assay (Swiss albino mice; single dose 2000 mg/kg i.p., carried out twice): did not induce death
nitrite concentration (nitrite (nitric oxide); 12.5 mg/kg): 188.5 ± 7.98 µM
IC50 [9]: > 50 µM
LC50 at 96 h ([10]; read-out: LC50 (median lethal concentration)): > 1000 µM
EC50 at 96 h ([10]; read-out: EC50 pericardial edema): > 1000 µM
EC50 at 96 h ([10]; read-out: EC50 reduction in larval length): 126 µM
EC50 at 96 h ([10]; read-out: EC50 spinal deformation): 172 µM
cell viability ([11]; trypan blue, control 115.5 ± 23.97): 4.12 ± 1.28 × 10^6 cells/mL
tumor volume ([11]; control 6.93 ± 0.79 mL): 0.0 mL
AChE activity ([12]; 10 µM): 85.67 ± 0.11
AChE activity ([12]; 20 µM): 94.59 ± 0.20
AChE activity ([12]; 40 µM): 94.54 ± 0.10
IC50 ([1]; HCT-116, 72 h): 23.1 ± 1.03 µM
IC50 [13]: 115 ± 5.82 µM

COc1cccc2c1C(=O)c1c(O)c3c(c(O)c1C2=O)C[C@@](O)(C(=O)CO)C[C@@H]3O[C@H]1C[C@H](N)[C@H](O)[C@H](C)O1 [Doxorubicin]
IC50 [1, 14]: 2.59 µM
